This note sets out measurements from article PMC5762315, “Inhibition of polo-like kinase 4 (PLK4): a new therapeutic option for rhabdoid tumors and pediatric medulloblastoma” (Oncotarget, 2017).

Holding throughout (test): biochemical
Common to all, as to assay type: biochemical

Test [1] concerns the target various kinases (Homo sapiens, UniProt P07949, Y791F). The following applies: kinase RET Y791F; ZLYTE.
Test [2] has as its target various kinases (Homo sapiens, UniProt P16234). The following applies: PDGFRA (PDGFR alpha).
The target in test [3] is various kinases (Homo sapiens, UniProt P16234, V561D). To be noted: PDGFRA V561D.
In test [4] the target is various kinases (Homo sapiens, UniProt P24941). To be noted: CDK2/cyclin A.
Test [5] addresses various kinases (Homo sapiens, UniProt P29323). The following applies: EPHB2.
In test [6] the target is various kinases (Homo sapiens, UniProt P30530). The following applies: AXL.
various kinases (Homo sapiens, UniProt P30530), sequence (P30530 26-894): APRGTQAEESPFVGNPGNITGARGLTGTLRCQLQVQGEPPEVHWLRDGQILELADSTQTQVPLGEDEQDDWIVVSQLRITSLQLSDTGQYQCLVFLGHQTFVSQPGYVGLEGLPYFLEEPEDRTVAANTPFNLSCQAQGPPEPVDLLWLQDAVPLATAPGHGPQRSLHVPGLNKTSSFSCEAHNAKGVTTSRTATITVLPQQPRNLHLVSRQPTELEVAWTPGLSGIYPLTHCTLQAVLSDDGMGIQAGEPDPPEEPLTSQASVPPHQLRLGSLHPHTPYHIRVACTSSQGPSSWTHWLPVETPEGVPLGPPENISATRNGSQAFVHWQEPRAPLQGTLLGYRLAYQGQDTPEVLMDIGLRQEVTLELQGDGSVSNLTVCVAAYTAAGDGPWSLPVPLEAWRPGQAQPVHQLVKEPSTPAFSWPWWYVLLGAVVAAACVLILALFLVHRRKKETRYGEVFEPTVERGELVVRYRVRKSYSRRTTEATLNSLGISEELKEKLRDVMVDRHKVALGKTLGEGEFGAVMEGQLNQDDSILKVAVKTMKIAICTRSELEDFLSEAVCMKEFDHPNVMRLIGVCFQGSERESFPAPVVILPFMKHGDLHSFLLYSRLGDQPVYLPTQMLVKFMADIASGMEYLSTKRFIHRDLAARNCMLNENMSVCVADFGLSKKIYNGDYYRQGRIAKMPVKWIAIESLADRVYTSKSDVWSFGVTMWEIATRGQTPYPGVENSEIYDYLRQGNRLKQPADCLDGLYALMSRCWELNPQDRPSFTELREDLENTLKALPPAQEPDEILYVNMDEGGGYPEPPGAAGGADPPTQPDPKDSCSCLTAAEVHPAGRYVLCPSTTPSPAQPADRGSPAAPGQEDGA
The target in test [7] is various kinases (Homo sapiens, UniProt P51812). To be noted: kinase RPS6KA3 (RSK2); ZLYTE.
various kinases (Homo sapiens, UniProt P51812), sequence (P51812 whole entry): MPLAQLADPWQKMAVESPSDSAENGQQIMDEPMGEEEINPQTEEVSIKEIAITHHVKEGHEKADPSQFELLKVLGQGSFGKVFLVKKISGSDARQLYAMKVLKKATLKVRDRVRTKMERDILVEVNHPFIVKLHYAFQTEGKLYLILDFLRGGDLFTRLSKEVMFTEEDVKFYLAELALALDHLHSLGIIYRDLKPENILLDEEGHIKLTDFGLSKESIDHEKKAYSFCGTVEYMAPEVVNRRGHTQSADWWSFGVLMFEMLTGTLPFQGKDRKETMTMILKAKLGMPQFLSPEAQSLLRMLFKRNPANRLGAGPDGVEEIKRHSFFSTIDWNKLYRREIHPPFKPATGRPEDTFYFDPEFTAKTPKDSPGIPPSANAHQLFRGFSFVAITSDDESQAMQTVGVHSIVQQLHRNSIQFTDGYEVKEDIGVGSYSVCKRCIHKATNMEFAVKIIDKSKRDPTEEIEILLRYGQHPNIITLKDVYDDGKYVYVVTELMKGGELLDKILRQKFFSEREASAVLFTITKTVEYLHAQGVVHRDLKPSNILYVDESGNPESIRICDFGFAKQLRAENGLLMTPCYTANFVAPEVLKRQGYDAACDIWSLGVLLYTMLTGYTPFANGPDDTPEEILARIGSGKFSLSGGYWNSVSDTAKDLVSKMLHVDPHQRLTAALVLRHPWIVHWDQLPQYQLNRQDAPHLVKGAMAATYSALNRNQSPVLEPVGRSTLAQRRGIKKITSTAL
Test [8] deals with various kinases (Homo sapiens, UniProt P51955). To be noted: NEK2.
In test [9] the target is T1, various kinases (Homo sapiens, UniProt Q02156).
T1 sequence (Q02156 1-737): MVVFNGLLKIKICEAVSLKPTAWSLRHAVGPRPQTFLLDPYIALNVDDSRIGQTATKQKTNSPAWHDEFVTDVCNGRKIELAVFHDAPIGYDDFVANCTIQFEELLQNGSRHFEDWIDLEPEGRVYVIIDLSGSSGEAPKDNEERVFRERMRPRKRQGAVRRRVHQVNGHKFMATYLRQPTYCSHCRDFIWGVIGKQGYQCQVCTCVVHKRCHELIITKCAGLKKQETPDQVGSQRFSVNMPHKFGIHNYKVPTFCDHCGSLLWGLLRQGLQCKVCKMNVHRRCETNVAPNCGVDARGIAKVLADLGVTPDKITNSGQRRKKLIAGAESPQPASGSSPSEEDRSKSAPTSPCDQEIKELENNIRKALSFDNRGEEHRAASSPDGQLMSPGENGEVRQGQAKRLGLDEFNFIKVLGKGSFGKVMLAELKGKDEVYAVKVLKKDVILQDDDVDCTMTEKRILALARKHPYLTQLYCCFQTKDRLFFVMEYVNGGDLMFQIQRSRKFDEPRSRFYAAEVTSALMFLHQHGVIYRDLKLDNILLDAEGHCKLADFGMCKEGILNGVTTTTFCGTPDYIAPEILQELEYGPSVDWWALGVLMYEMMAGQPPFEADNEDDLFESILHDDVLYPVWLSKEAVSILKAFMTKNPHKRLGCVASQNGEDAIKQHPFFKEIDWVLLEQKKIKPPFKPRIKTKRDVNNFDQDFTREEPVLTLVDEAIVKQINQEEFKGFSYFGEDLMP
The following applies: kinase PRKCE (PKC epsilon); ZLYTE.

Test [10] deals with various kinases (Homo sapiens, UniProt Q04912). To be noted: MST1R (RON).
In test [11] the target is various kinases (Homo sapiens, UniProt Q05397). To be noted: kinase PTK2 (FAK); ZLYTE.
various kinases (Homo sapiens, UniProt Q05397), sequence (Q05397 whole entry): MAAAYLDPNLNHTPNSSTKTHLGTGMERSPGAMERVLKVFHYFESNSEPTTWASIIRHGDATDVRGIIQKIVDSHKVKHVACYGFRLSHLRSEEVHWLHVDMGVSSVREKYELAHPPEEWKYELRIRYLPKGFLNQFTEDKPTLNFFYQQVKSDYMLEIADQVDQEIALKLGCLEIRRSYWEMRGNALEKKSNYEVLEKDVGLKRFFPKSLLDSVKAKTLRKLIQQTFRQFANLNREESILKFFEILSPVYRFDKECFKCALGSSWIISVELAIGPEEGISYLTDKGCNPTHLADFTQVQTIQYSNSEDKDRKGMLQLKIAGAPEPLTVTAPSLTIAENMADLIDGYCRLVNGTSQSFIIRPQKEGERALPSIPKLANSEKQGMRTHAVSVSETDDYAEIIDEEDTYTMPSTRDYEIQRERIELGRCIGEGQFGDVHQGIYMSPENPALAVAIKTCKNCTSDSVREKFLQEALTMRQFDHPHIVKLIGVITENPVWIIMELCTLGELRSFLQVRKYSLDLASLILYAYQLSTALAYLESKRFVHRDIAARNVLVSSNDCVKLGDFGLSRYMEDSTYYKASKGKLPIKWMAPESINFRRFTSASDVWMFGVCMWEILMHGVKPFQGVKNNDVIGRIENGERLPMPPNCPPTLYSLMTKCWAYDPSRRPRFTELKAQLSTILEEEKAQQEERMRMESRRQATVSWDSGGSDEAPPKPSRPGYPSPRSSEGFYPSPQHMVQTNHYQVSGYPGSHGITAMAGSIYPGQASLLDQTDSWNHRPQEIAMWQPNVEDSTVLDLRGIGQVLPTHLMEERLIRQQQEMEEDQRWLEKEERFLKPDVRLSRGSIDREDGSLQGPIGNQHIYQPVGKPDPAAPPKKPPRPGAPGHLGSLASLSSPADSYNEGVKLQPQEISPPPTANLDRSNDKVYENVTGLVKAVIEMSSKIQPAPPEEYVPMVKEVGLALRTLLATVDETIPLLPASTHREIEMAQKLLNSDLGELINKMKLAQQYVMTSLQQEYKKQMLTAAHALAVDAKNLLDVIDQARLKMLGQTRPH
Test [12] deals with various kinases (Homo sapiens, UniProt Q06187). The following applies: BTK.
various kinases (Homo sapiens, UniProt Q06187), sequence (Q06187 whole entry): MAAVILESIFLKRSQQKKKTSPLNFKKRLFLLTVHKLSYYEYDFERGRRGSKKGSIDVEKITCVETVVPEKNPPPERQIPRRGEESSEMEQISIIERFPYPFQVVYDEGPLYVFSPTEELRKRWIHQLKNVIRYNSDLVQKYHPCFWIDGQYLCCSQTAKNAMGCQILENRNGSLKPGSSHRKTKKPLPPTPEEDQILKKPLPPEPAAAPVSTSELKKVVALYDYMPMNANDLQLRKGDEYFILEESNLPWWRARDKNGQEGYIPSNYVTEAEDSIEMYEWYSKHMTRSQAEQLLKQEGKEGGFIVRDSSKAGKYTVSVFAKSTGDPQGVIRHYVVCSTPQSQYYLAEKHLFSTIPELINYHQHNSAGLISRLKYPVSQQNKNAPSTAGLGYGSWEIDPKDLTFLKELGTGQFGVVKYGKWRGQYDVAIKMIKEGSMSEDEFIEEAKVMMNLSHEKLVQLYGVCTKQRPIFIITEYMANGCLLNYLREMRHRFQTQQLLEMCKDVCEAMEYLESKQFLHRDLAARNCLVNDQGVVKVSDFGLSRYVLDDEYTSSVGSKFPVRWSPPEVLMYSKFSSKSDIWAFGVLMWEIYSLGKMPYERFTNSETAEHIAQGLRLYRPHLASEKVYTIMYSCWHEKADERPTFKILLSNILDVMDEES
In test [13] the target is T2, various kinases (Homo sapiens, UniProt Q13043).
T2 sequence (Q13043 1-487): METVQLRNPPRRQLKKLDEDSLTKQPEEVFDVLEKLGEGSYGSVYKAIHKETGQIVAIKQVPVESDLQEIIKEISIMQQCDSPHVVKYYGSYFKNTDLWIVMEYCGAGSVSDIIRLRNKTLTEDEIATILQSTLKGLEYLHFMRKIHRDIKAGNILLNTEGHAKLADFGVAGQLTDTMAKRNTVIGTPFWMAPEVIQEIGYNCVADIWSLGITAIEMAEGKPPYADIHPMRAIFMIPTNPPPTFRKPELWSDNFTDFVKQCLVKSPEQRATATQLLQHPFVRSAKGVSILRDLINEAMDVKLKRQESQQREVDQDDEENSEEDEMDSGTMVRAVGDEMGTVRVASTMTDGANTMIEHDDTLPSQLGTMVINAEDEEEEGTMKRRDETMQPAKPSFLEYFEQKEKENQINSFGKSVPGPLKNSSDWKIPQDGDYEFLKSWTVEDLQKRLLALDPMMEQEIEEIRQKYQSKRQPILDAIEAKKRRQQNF
To be noted: kinase STK4 (MST1); ZLYTE.

In test [14] the target is various kinases (Homo sapiens, UniProt Q86V86). The following applies: PIM3.

Values joined by “and” are separate entries in the source; they are usually repeats but may differ in a detail not shown here. Equal entries are not always repeated.
Throughout, for % Inhibition Average: test concentration or dose not given here.
Throughout, for % Inhibition Duplicate #1: test concentration or dose not given here.
Throughout, for % Inhibition Duplicate #2: test concentration or dose not given here.

various kinases (Homo sapiens, UniProt P07949, Y791F), sequence (P07949 29-1114 Y791F): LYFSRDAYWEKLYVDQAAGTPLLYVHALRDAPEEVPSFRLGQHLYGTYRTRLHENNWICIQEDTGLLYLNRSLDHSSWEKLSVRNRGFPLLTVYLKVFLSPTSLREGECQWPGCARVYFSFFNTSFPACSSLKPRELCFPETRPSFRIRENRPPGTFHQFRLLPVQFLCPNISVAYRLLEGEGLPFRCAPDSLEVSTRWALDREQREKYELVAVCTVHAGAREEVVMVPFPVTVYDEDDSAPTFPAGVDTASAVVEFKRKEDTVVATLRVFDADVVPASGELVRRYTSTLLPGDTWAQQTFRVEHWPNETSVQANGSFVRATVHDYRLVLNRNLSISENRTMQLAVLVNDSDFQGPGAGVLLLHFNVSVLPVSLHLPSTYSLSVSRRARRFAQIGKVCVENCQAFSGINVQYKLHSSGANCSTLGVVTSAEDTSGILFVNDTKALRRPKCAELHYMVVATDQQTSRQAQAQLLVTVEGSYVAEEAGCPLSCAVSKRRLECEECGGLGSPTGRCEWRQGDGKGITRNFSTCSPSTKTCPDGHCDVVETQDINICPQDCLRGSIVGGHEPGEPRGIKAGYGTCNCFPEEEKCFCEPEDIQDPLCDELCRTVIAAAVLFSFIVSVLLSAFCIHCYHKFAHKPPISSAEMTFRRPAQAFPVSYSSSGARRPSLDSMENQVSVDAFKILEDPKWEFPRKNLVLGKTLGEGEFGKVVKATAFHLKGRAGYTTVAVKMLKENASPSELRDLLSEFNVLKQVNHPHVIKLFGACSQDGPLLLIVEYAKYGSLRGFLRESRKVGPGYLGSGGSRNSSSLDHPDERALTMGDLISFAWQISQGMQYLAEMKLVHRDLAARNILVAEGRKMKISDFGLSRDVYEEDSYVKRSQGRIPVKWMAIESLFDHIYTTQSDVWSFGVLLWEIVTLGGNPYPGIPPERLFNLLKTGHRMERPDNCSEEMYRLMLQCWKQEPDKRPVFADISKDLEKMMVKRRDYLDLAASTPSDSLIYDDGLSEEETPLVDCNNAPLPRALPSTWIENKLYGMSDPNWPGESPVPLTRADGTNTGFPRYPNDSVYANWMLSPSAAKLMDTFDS

Usually % Inhibition stands for the drop in the measured response relative to a control, in per cent. Consider `COc1ccc2c(c1)[C@]1(C[C@H]1c1ccc3c(/C=C/c4ccc(CN5C[C@@H](C)O[C@@H](C)C5)cc4)n[nH]c3c1)C(=O)N2` [CFI-400945], for which the “% Inhibition Average” value is given as 14% at various kinases [1]; 2% on various kinases [7]; -2% at various kinases [9]; 4% on various kinases [11]; 23% on various kinases [13]. The “% Inhibition Duplicate #1” value was 13% at various kinases [1]; 1% on various kinases [7]; -5% at various kinases [9]; 5% at various kinases [11]; 22% at various kinases [13]. Also, the “% Inhibition Duplicate #2” value is listed as 14% on various kinases [1]; 2% at various kinases [7]; 1% at various kinases [9]; 3% at various kinases [11]; 24% on various kinases [13]. Also, the “% Inhibition” value at various kinases [2] was 3% and 2%; on various kinases [3], 5% and 4%; on various kinases [4] it was 7% and 2%; at various kinases [5] it was 5%; on various kinases [6] it was 10% and 11%; on various kinases [8], -1% and 1%. Besides, the “% Inhibition” value is 8% and 9% on various kinases [10]; 6% and 3% on various kinases [12]; -1% and 0% at various kinases [14].
